Experimental data: US20240058315A1, “Pyridine and Pyrazine derivative for the Treatment of CF, COPD, and Bronchiectasis” (NOVARTIS AG, priority 2019, published 2024)

Key:
COPD patients = assay: Phase II study of Compound A in COPD patients: fibrinogen levels in blood; format: in vivo, human; design: fibrinogen change from baseline, mean / fibrinogen change from baseline, minimum / fibrinogen change from baseline, median / fibrinogen change from baseline, maximum: unit not given here; conditions: for fibrinogen change from baseline, maximum / fibrinogen change from baseline, mean / fibrinogen change from baseline, median / fibrinogen change from baseline, minimum: value in brackets
Method: Patients were randomized and stratified by smoking status (former vs current smokers). The double-blind placebo-controlled treatment period was 28 days (Day 1 to Day 28) and included visits on Days 1, 14 and 28. Eligible patients were randomized in a 2:1 ratio to receive 300 mg b.i.d. of Compound A or matching placebo for 28 consecutive days. Of note, the first 4 patients enrolled randomized in this study received 450 mg b.i.d. of Compound A or placebo, prior to an amendment reducing the dose and thereafter the dose was reduced to 300 mg b.i.d. of Compound A. The single-blind placebo-controlled follow-up period was 28 days. The follow-up period included a visit on Day 29 for key primary and secondary objective efficacy assessments, weekly follow-up contact via telephone, and an End-of-Study (EOS) visit on Day 56.
Blood samples were collected from patients for the analysis of fibrinogen.

UGT2B7 = UGT2B7 (Homo sapiens (Human), UniProt P16662); assay: in vitro inhibition of UGT2B7; format: in vitro ADME
Sequence of UGT2B7 (P16662 24-529): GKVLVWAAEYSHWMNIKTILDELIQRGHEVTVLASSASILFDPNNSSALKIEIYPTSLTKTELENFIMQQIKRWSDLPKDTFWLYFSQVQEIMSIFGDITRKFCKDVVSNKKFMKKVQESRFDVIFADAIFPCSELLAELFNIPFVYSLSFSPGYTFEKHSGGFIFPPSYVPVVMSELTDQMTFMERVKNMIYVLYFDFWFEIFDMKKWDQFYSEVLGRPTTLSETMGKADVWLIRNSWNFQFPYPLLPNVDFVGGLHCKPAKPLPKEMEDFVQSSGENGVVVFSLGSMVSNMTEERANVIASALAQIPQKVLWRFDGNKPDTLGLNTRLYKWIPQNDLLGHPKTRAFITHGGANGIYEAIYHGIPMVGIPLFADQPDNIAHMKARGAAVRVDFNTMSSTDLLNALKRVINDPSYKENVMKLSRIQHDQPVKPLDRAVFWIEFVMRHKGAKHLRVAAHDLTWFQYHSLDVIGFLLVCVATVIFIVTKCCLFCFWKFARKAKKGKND

[1] = BAS (baseline) visit, 300 mg bid group
[2] = SCR (screening) visit, 300 mg bid group

COc1nc(C(=O)NC[C@](C)(O)C(F)(F)F)c(N)cc1C(F)(F)F (single isomer, unassigned) [Example 5]
fibrinogen level, maximum (COPD patients; [1]): 4.9 g/L | fibrinogen level, mean (COPD patients; [1]): 3.28 g/L | fibrinogen level, median (COPD patients; [1]): 3.16 g/L | fibrinogen level, minimum (COPD patients; [1]): 2 g/L | fibrinogen level, maximum (COPD patients; D14, 300 mg bid): 4.4 g/L | fibrinogen level, mean (COPD patients; D14, 300 mg bid): 3.1 g/L | fibrinogen level, median (COPD patients; D14, 300 mg bid): 3.03 g/L | fibrinogen level, minimum (COPD patients; D14, 300 mg bid): 1.6 g/L | fibrinogen change from baseline, maximum (COPD patients; D14, 300 mg bid): 1.7 | fibrinogen change from baseline, mean (COPD patients; D14, 300 mg bid): −0.18 | fibrinogen change from baseline, median (COPD patients; D14, 300 mg bid): −0.20 | fibrinogen change from baseline, minimum (COPD patients; D14, 300 mg bid): −1.7 | fibrinogen level, maximum (COPD patients; D29, 300 mg bid): 4.4 g/L | fibrinogen level, mean (COPD patients; D29, 300 mg bid): 3.02 g/L | fibrinogen level, median (COPD patients; D29, 300 mg bid): 2.98 g/L | fibrinogen level, minimum (COPD patients; D29, 300 mg bid): 1.6 g/L | fibrinogen change from baseline, maximum (COPD patients; D29, 300 mg bid): 1.3 | fibrinogen change from baseline, mean (COPD patients; D29, 300 mg bid): −0.24 | fibrinogen change from baseline, median (COPD patients; D29, 300 mg bid): −0.17 | fibrinogen change from baseline, minimum (COPD patients; D29, 300 mg bid): −1.8 | mean change from baseline over time for fibrinogen (FIG. 1) (COPD patients; Day 14 and 29 during treatment period): decrease of fibrinogen levels | estimated difference (Compound A to placebo) in mean change from baseline fibrinogen (COPD patients; Day 29, 300 mg bid for 28 days, 90% CI −0.65, −0.14, p-value=0.006): -0.40 g/L | Fibrinogen mean improvement over placebo (COPD patients; Day 29, p-value=0.006): 40 mg/dL | fibrinogen level, mean (COPD patients; EOS (Day 56, 28 days after last dose), 300 mg bid): 3.24 g/L | fibrinogen level, maximum (COPD patients; EOS, 300 mg bid): 6.6 g/L | fibrinogen level, median (COPD patients; EOS, 300 mg bid): 3.16 g/L | fibrinogen level, minimum (COPD patients; EOS, 300 mg bid): 2 g/L | fibrinogen change from baseline, maximum (COPD patients; EOS, 300 mg bid): 3.0 | fibrinogen change from baseline, mean (COPD patients; EOS, 300 mg bid): −0.03 | fibrinogen change from baseline, median (COPD patients; EOS, 300 mg bid): −0.11 | fibrinogen change from baseline, minimum (COPD patients; EOS, 300 mg bid): −1.7 | fibrinogen level, maximum (COPD patients; [2]): 4.9 g/L | fibrinogen level, mean (COPD patients; [2]): 3.03 g/L | fibrinogen level, median (COPD patients; [2]): 3 g/L | fibrinogen level, minimum (COPD patients; [2]): 1.1 g/L | inhibition of UGT2B7 (UGT2B7): Weak in vitro inhibition
